The record followed here is ChEMBL document CHEMBL1141619, “Discovery of novel inhibitors of 11beta-hydroxysteroid dehydrogenase type 1 by docking and pharmacophore modeling” (Bioorg Med Chem Lett, 2008).

Assay [1] addresses 11-beta-hydroxysteroid dehydrogenase 1 (Mus musculus, UniProt P50172). Kind of assay: Inhibition of mouse 11beta-HSD1.
Assay [2] concerns the target T1, 11-beta-hydroxysteroid dehydrogenase type 2 (Mus musculus) (UniProt P51661).
T1 sequence (whole entry): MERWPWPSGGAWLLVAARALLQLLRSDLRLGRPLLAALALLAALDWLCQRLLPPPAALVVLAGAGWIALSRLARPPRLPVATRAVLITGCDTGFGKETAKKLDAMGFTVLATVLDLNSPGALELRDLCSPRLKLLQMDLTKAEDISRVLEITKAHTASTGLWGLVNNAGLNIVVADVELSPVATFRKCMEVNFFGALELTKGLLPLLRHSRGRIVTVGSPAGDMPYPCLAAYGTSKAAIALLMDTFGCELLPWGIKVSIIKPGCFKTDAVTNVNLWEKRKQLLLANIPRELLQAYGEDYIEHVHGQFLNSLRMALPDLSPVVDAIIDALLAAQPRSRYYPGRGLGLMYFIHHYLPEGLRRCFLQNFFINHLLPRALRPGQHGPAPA
Kind of assay: Inhibition of mouse 11beta-HSD2 at 10 uM.

The target in assay [3] is 11-beta-hydroxysteroid dehydrogenase 1 (Mus musculus) (UniProt P50172). The assay can be described thus: Inhibition of mouse 11beta-HSD1 at 10 uM.
Sequence of 11-beta-hydroxysteroid dehydrogenase 1 (Mus musculus) (P50172 whole entry, looked up): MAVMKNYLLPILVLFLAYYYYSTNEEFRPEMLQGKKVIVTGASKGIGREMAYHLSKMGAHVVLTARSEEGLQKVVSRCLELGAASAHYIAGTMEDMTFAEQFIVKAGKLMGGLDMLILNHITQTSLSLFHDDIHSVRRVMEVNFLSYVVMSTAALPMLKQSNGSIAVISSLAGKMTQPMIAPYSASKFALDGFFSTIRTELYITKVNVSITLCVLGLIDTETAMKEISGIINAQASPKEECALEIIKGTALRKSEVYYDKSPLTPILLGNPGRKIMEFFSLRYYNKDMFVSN

Sequence of 11-beta-hydroxysteroid dehydrogenase 1 (P50172 whole entry): as the sequence (P50172 whole entry, looked up) above

For the compound `Cc1ccc(S(=O)(=O)N(CC(=O)N2CCCCCC2)c2cc(Cl)ccc2C)cc1`, in assay [1], the IC50 was 6.1 µM. Further, the inhibition in assay [2] came to 0.8%.

In assay [1], `Cc1cc(NS(=O)(=O)c2ccc(NC(=O)c3ccc(C(=O)C(=O)c4ccccc4)cc3)cc2)nc(C)n1` showed an IC50 of 0.48 µM. This compound also registered an inhibition in assay [2] of 9.1%.

On to `O=C(CSc1nc2ccc(NC(=O)c3ccccc3Br)cc2s1)NCCc1ccccc1`, for which, in assay [1], the IC50 was found to be 2.09 µM. For the same compound, in assay [2], the inhibition is 0%.

In turn, `O=C(CN1C(=O)C2C3c4ccccc4C(c4ccccc43)C2C1=O)Nc1cccc(Cl)c1` (configuration not stated) displayed an IC50 in assay [1] of 12.5 µM. The inhibition in assay [2] was 2.2%.

Take `Cc1ccc(C(=O)COC(=O)C(Cc2ccccc2)N2C(=O)c3ccccc3C2=O)cc1` (configuration not stated): the results for the inhibition in assay [3] and in assay [2] were 60% and 3.4%, respectively.

`CC(C)COC(=O)c1ccc(NC(=O)c2ccc3c(c2)-c2ccccc2C3=O)cc1` registered an IC50 in assay [1] of 3.6 µM. Moreover, the inhibition in assay [2] amounted to 3.7%.

Usually IC50 stands for the midpoint of a concentration-inhibition curve. The term inhibition denotes the relative decrease from the control value, in per cent. Read a high inhibition as a response far below the control.
